Laboratory results taken from patent US20070049564A1 (Wyeth, priority 2005, published 2007).
Values after ≈ are worked out from the molar mass of the structure shown. Where two headings read alike, the source gives them in different places.

Experiments:
E. coli GC 2235 = experiment: MIC, broth microdilution; conditions: Escherichia coli
Experimental: (§1) Antimicrobial susceptibility testing. The in vitro activities of the antibiotics are determined by the broth microdilution method as recommended by the National Committee for Clinical Laboratory Standards (NCCLS) (1). Mueller-Hinton II broth (MHBII)(BBL Cockeysville, Md.) is the medium employed in the testing procedures. Microtiter plates containing serial dilutions of each antimicrobial agent are inoculated with each organism to yield the appropriate density (10^5 CFU/ml) in a 100 μl final volume. The plates are incubated for 18-22 hours at 35° C. in ambient air.
(§2) Representative compounds were first incubated in mouse serum for an hour prior to the in vitro testing against a panel of selected gram-positive and gram-negative bacteria strains. All compounds were also pre-incubated in water for an hour prior to testing as control. Representative compounds of Formula I were incubated in human serum prior to MIC determination.

S. typhimurium GC 2172 = experiment: MIC, broth microdilution; conditions: Salmonella enterica, TYPHIMURIUM
E. coli GC 3226 = experiment: MIC, broth microdilution; conditions: Escherichia coli
Experimental: as §1, §2

E. coli GC 1073 = experiment: MIC, broth microdilution; conditions: Escherichia coli
S. pyogenes GC 4563 = experiment: MIC, broth microdilution; conditions: Streptococcus pyogenes
Staph. = experiment: Range of MIC for Staph. strains, including MRSA; conditions: Staphylococcus aureus
E. coli GC 2270 = experiment: MIC, broth microdilution; conditions: Escherichia coli
E. coli GC 2236 = experiment: MIC, broth microdilution; conditions: Escherichia coli
c. albicans GC 3066 = experiment: MIC, broth microdilution
E. coli GC 2271 = experiment: MIC, broth microdilution; conditions: Escherichia coli
E. faecium GC 4556 = experiment: MIC, broth microdilution; conditions: Enterococcus faecium
S. aureus GC 6469 = experiment: MIC, broth microdilution; conditions: Staphylococcus aureus
E. coli GC 2233 = experiment: MIC, broth microdilution; conditions: Escherichia coli
E. coli = experiment: Range of MIC for E. coli strains; conditions: Escherichia coli, 20 h, read-out: Range of MIC, E. coli (Mouse Serum)
S. aureus GC 1079 = experiment: MIC, broth microdilution; conditions: Staphylococcus aureus
E. faecium GC 2243 = experiment: MIC, broth microdilution; conditions: Enterococcus faecium
S. aureus GC 6335 = experiment: MIC, broth microdilution; conditions: Staphylococcus aureus
E. faecalis GC 4555 = experiment: MIC, broth microdilution; conditions: Enterococcus faecalis
S. agalactiae GC 4564 = experiment: MIC, broth microdilution; conditions: Streptococcus agalactiae
E. faecalis GC 2265 = experiment: MIC, broth microdilution; conditions: Enterococcus faecalis

## CCCCCCC(=O)OCOC(=O)N(CC(=O)Nc1cc(N(C)C)c2c(c1O)C(=O)C1=C(O)[C@]3(O)C(=O)C(C(N)=O)=C(O)[C@@H](N(C)C)[C@@H]3C[C@@H]1C2)C(C)(C)C [Example 48, ({[(2-{[(5aR,6aS,7S,10aS)-9-(aminocarbonyl)-4,7-bis(dimethylamino)-1,8,10a,11-tetrahydroxy-10,12-dioxo-5,5a,6,6a,7,10,10a,12-octahydrotetracen-2-yl]amino}-2-oxoethyl)(tert-butyl)amino]carbonyl}oxy)methyl heptanoate]
E. coli GC 2235; GC2235, read-out: MINIMAL INHIBITORY CONCENTRATION MIC, Human Serum
  MIC: 16 µg/mL (≈ 20.7 µM)
E. coli GC 2235; GC2235, read-out: MINIMAL INHIBITORY CONCENTRATION MIC, Mouse Serum
  MIC: 0.25 µg/mL (≈ 0.324 µM)
E. coli GC 2235; GC2235, read-out: MINIMAL INHIBITORY CONCENTRATION MIC, Water
  MIC: 32 µg/mL (≈ 41.5 µM)
S. typhimurium GC 2172; read-out: MINIMAL INHIBITORY CONCENTRATION MIC, Human Serum
  MIC: > 64 µg/mL
S. typhimurium GC 2172; read-out: MINIMAL INHIBITORY CONCENTRATION MIC, Mouse Serum
  MIC: 4 µg/mL (≈ 5.18 µM)
S. typhimurium GC 2172; read-out: MINIMAL INHIBITORY CONCENTRATION MIC, Water
  MIC: > 64 µg/mL
E. coli GC 3226; GC3226, read-out: MINIMAL INHIBITORY CONCENTRATION MIC, Human Serum
  MIC: 32 µg/mL (≈ 41.5 µM)
E. coli GC 3226; GC3226, read-out: MINIMAL INHIBITORY CONCENTRATION MIC, Mouse Serum
  MIC: 0.5 µg/mL (≈ 0.648 µM)
E. coli GC 3226; GC3226, read-out: MINIMAL INHIBITORY CONCENTRATION MIC, Water
  MIC: > 64 µg/mL
E. coli GC 1073; GC1073, read-out: MINIMAL INHIBITORY CONCENTRATION MIC, Human Serum
  MIC: 32 µg/mL (≈ 41.5 µM)
E. coli GC 1073; GC1073, read-out: MINIMAL INHIBITORY CONCENTRATION MIC, Mouse Serum
  MIC: 0.5 µg/mL (≈ 0.648 µM)
E. coli GC 1073; GC1073, read-out: MINIMAL INHIBITORY CONCENTRATION MIC, Water
  MIC: 64 µg/mL (≈ 82.9 µM)
S. pyogenes GC 4563; GC4563, read-out: MINIMAL INHIBITORY CONCENTRATION MIC, Human Serum
  MIC: 0.12 µg/mL (≈ 0.155 µM)
S. pyogenes GC 4563; GC4563, read-out: MINIMAL INHIBITORY CONCENTRATION MIC, Mouse Serum
  MIC: 0.12 µg/mL (≈ 0.155 µM)
S. pyogenes GC 4563; GC4563, read-out: MINIMAL INHIBITORY CONCENTRATION MIC, Water
  MIC: 0.12 µg/mL (≈ 0.155 µM)
Staph.; MRSA, read-out: Range of MIC, Staph (Mouse Serum)
  MIC: 0.12 to 2 µg/mL (≈ 0.155 to 2.59 µM)
Staph.; MRSA, read-out: Range of MIC, Staph (Water)
  MIC: 0.12 to 2 µg/mL (≈ 0.155 to 2.59 µM)
Staph.; read-out: Minimum inhibitory concentration (MIC), Staph (Human Serum)
  MIC: 0.12 to 2 µg/mL (≈ 0.155 to 2.59 µM)
Staph.; read-out: Minimum inhibitory concentration (MIC), Staph (Water)
  MIC: 0.12 to 2 µg/mL (≈ 0.155 to 2.59 µM)
E. coli GC 2270; GC2270, read-out: MINIMAL INHIBITORY CONCENTRATION MIC, Human Serum
  MIC: 16 µg/mL (≈ 20.7 µM)
E. coli GC 2270; GC2270, read-out: MINIMAL INHIBITORY CONCENTRATION MIC, Mouse Serum
  MIC: 0.5 µg/mL (≈ 0.648 µM)
E. coli GC 2270; GC2270, read-out: MINIMAL INHIBITORY CONCENTRATION MIC, Water
  MIC: 64 µg/mL (≈ 82.9 µM)
E. coli GC 2236; GC2236, read-out: MINIMAL INHIBITORY CONCENTRATION MIC, Human Serum
  MIC: 16 µg/mL (≈ 20.7 µM)
E. coli GC 2236; GC2236, read-out: MINIMAL INHIBITORY CONCENTRATION MIC, Mouse Serum
  MIC: 0.25 µg/mL (≈ 0.324 µM)
E. coli GC 2236; GC2236, read-out: MINIMAL INHIBITORY CONCENTRATION MIC, Water
  MIC: 64 µg/mL (≈ 82.9 µM)
c. albicans GC 3066; Candida albicans, GC3066, read-out: MINIMAL INHIBITORY CONCENTRATION MIC
  MIC: > 64 µg/mL
c. albicans GC 3066; Human Serum
  MINIMAL INHIBITORY CONCENTRATION MIC: >64 UG/ML
c. albicans GC 3066; Mouse Serum
  MINIMAL INHIBITORY CONCENTRATION MIC: >64 UG/ML
E. coli GC 2271; GC2271, read-out: MINIMAL INHIBITORY CONCENTRATION MIC, Human Serum
  MIC: 8 µg/mL (≈ 10.4 µM)
E. coli GC 2271; GC2271, read-out: MINIMAL INHIBITORY CONCENTRATION MIC, Mouse Serum
  MIC: 0.25 µg/mL (≈ 0.324 µM)
E. coli GC 2271; GC2271, read-out: MINIMAL INHIBITORY CONCENTRATION MIC, Water
  MIC: 32 µg/mL (≈ 41.5 µM)
E. faecium GC 4556; GC4556, read-out: MINIMAL INHIBITORY CONCENTRATION MIC, Human Serum
  MIC: 1 µg/mL (≈ 1.3 µM)
E. faecium GC 4556; GC4556, read-out: MINIMAL INHIBITORY CONCENTRATION MIC, Mouse Serum
  MIC: 0.5 µg/mL (≈ 0.648 µM)
E. faecium GC 4556; GC4556, read-out: MINIMAL INHIBITORY CONCENTRATION MIC, Water
  MIC: 1 µg/mL (≈ 1.3 µM)
S. aureus GC 6469; GC6469, read-out: MINIMAL INHIBITORY CONCENTRATION MIC, Human Serum
  MIC: 1 µg/mL (≈ 1.3 µM)
S. aureus GC 6469; GC6469, read-out: MINIMAL INHIBITORY CONCENTRATION MIC, Mouse Serum
  MIC: 0.5 µg/mL (≈ 0.648 µM)
S. aureus GC 6469; GC6469, read-out: MINIMAL INHIBITORY CONCENTRATION MIC, Water
  MIC: 1 µg/mL (≈ 1.3 µM)
E. coli GC 2233; GC2233, read-out: MINIMAL INHIBITORY CONCENTRATION MIC, Human Serum
  MIC: 16 µg/mL (≈ 20.7 µM)
E. coli GC 2233; GC2233, read-out: MINIMAL INHIBITORY CONCENTRATION MIC, Mouse Serum
  MIC: 0.25 µg/mL (≈ 0.324 µM)
E. coli GC 2233; GC2233, read-out: MINIMAL INHIBITORY CONCENTRATION MIC, Water
  MIC: 64 µg/mL (≈ 82.9 µM)
E. coli
  MIC: 0.25 to 2 µg/mL (≈ 0.324 to 2.59 µM)
S. aureus GC 1079; GC1079, read-out: MINIMAL INHIBITORY CONCENTRATION MIC, Human Serum
  MIC: 0.25 µg/mL (≈ 0.324 µM)
S. aureus GC 1079; GC1079, read-out: MINIMAL INHIBITORY CONCENTRATION MIC, Mouse Serum
  MIC: 0.25 µg/mL (≈ 0.324 µM)
S. aureus GC 1079; GC1079, read-out: MINIMAL INHIBITORY CONCENTRATION MIC, Water
  MIC: 1 µg/mL (≈ 1.3 µM)
E. faecium GC 2243; GC2243, read-out: MINIMAL INHIBITORY CONCENTRATION MIC, Human Serum
  MIC: 0.25 µg/mL (≈ 0.324 µM)
E. faecium GC 2243; GC2243, read-out: MINIMAL INHIBITORY CONCENTRATION MIC, Mouse Serum
  MIC: 0.25 µg/mL (≈ 0.324 µM)
E. faecium GC 2243; GC2243, read-out: MINIMAL INHIBITORY CONCENTRATION MIC, Water
  MIC: 0.5 µg/mL (≈ 0.648 µM)
S. aureus GC 6335; GC6335, read-out: MINIMAL INHIBITORY CONCENTRATION MIC, Human Serum
  MIC: 2 µg/mL (≈ 2.59 µM)
S. aureus GC 6335; GC6335, read-out: MINIMAL INHIBITORY CONCENTRATION MIC, Mouse Serum
  MIC: 2 µg/mL (≈ 2.59 µM)
S. aureus GC 6335; GC6335, read-out: MINIMAL INHIBITORY CONCENTRATION MIC, Water
  MIC: 2 µg/mL (≈ 2.59 µM)
E. faecalis GC 4555; GC4555, read-out: MINIMAL INHIBITORY CONCENTRATION MIC, Human Serum
  MIC: 4 µg/mL (≈ 5.18 µM)
E. faecalis GC 4555; GC4555, read-out: MINIMAL INHIBITORY CONCENTRATION MIC, Mouse Serum
  MIC: 0.12 µg/mL (≈ 0.155 µM)
E. faecalis GC 4555; GC4555, read-out: MINIMAL INHIBITORY CONCENTRATION MIC, Water
  MIC: 2 µg/mL (≈ 2.59 µM)
S. agalactiae GC 4564; GC4564, read-out: MINIMAL INHIBITORY CONCENTRATION MIC, Human Serum
  MIC: 0.12 µg/mL (≈ 0.155 µM)
S. agalactiae GC 4564; GC4564, read-out: MINIMAL INHIBITORY CONCENTRATION MIC, Mouse Serum
  MIC: 0.12 µg/mL (≈ 0.155 µM)
S. agalactiae GC 4564; GC4564, read-out: MINIMAL INHIBITORY CONCENTRATION MIC, Water
  MIC: 0.12 µg/mL (≈ 0.155 µM)
E. faecalis GC 2265; GC2265, read-out: MINIMAL INHIBITORY CONCENTRATION MIC, Human Serum
  MIC: 1 µg/mL (≈ 1.3 µM)
E. faecalis GC 2265; GC2265, read-out: MINIMAL INHIBITORY CONCENTRATION MIC, Mouse Serum
  MIC: 0.5 µg/mL (≈ 0.648 µM)
E. faecalis GC 2265; GC2265, read-out: MINIMAL INHIBITORY CONCENTRATION MIC, Water
  MIC: 2 µg/mL (≈ 2.59 µM)
